Experiment [1] addresses T1, Tyrosine-protein phosphatase non-receptor type 22 (Homo sapiens, UniProt Q9Y2R2).
T1 sequence (Q9Y2R2 whole entry): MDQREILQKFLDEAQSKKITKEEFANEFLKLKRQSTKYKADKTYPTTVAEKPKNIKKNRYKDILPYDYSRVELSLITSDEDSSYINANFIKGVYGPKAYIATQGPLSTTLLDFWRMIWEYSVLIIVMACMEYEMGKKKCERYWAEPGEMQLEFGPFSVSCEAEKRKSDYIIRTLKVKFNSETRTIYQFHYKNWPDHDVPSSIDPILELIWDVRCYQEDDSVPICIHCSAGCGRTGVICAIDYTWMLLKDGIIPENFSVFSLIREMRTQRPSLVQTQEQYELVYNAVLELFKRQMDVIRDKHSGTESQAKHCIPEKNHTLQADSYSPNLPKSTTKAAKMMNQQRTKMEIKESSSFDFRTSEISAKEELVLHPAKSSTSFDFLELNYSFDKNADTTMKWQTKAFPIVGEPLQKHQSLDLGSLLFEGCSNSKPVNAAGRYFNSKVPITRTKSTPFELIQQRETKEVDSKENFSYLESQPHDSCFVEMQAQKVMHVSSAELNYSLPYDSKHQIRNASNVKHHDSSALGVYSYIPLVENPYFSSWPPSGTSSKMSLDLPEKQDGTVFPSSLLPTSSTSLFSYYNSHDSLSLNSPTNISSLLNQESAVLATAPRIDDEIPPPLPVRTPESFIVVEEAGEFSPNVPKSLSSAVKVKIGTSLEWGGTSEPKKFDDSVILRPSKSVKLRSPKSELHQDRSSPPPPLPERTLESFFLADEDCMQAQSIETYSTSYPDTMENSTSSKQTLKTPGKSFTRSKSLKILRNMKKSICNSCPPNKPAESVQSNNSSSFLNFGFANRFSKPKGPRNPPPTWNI
In kind it is functional.

In experiment [2] the target is T1, Tyrosine-protein phosphatase non-receptor type 22. In kind it is functional. The source holds these as a separate data set.
For experiment [3], the target named is T2, Tyrosine-protein phosphatase non-receptor type 7 (Homo sapiens, UniProt P35236).
T2 sequence (P35236 whole entry): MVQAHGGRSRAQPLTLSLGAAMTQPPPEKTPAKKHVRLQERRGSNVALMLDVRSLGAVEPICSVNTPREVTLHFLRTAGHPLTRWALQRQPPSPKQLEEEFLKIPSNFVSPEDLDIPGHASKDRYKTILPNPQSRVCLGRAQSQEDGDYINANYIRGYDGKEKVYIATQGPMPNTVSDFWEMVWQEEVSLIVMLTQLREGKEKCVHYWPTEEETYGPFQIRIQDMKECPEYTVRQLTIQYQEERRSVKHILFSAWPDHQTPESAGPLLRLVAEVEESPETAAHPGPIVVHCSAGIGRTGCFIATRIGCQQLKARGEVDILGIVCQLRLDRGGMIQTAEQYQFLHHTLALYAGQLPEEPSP
Format: functional.

In experiment [4] the target is T3, E3 ubiquitin-protein ligase XIAP (Homo sapiens, UniProt P98170). Briefly: Counter Screen using XIAP-Bir3 for Chemical Antagonists of Bir1/2 domains of IAP-family anti-apoptotic proteins. [Related pubchem assays (depositor defined):AID1018, AID1449, AID1514, AID1638, AID1749, AID1750, AID488957, AID488963]. In general terms: Counterscreens check selectivity or assay interference.

Experiment [5] deals with T3, E3 ubiquitin-protein ligase XIAP. The experiment is described as follows: small molecules displacing peptide from XIAP – biochemical, IAP family, fluorescence polarization (AID 1018). In kind it is functional. (Polarisation of emitted light reports the rotation of a fluorescent probe.)
The target in experiment [6] is T4, Ubiquitin-conjugating enzyme E2 N (Homo sapiens, UniProt P61088).
T4 sequence (P61088 whole entry): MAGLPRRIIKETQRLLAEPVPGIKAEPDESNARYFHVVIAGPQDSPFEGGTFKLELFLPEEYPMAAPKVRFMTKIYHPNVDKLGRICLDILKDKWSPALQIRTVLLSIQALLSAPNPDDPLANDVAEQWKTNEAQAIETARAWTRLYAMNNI
Format: functional.

Experiment [7] concerns the target T4, Ubiquitin-conjugating enzyme E2 N. Format: functional. The source holds these as a separate data set.
In the next experiment the target is T5, Bcl-2-related protein A1 (Mus musculus, UniProt Q07440).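 Further: confirmatory dose–response counterscreen on Bfl-1, used to check hits from a UBC13 polyubiquitin inhibitor campaign.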
T5 sequence (Q07440 whole entry): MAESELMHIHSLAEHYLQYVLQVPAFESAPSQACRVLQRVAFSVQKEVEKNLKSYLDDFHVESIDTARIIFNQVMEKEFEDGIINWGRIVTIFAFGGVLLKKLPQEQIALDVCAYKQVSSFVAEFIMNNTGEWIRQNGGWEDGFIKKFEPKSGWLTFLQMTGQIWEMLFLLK
In kind it is functional.

A further experiment has as its target T6, Streptokinase A (Streptococcus pyogenes serotype M1, UniProt P10520).
T6 sequence (P10520 whole entry): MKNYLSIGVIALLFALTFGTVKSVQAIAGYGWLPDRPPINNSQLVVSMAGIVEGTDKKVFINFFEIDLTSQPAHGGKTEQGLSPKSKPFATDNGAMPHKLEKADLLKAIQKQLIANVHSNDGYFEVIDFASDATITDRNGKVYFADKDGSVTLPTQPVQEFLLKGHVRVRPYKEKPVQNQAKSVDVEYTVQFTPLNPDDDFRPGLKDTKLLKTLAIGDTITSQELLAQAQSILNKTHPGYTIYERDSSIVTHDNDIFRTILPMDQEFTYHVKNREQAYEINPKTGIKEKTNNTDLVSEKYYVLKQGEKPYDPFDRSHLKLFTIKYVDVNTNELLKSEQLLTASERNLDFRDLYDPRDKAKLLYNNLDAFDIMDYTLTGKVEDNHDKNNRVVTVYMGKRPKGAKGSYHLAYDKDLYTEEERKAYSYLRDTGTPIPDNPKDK
Briefly: viability-normalized secreted streptokinase activity reduction – plasminogen activation absorbance, OD405, dose response (AID 1914).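 Further: secreted streptokinase activity via plasminogen activation per viability signal from cell pellet.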 Format: functional, Streptococcus pyogenes M1 GAS.

A short description of experiment [8]: NIH3T3 cell viability loss – ATP luminescence, mouse fibroblasts, counter-screen, dose response (AID 2010).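 Further: cells exposed to compound for about 90 hours before reading.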 Format: functional, cell-based.
The subject of experiment [9] is Streptococcus sp. 'group A'. The experiment is described as follows: Streptococcus pyogenes SK(-)GAS viability under kanamycin – luminescence, BacTiterGlo, confirmation, counter-screen for streptokinase expression inhibitor project, dose response (AID 1900). Format: functional, organism-based.
A short description of experiment [10]: Trypanosoma cruzi growth suppression in host cells – NIH3T3 host cells, beta-gal luminescence, confirmation (AID 2044).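 Further: intracellular parasites grown in NIH/3T3 mouse fibroblasts as host cells; luminescent beta-galactosidase reporter signal from transgenic T. cruzi replicating inside host cells; inhibitors lower the luminescence signal.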 In kind it is functional, cell-based.
Experiment [11] deals with Neurotensin receptor type 1 (Homo sapiens, UniProt P30989). Format: functional.
In a further experiment the test system is Streptococcus. Briefly: GAS UMAA2166 growth inhibition – luminescence, BacTiterGlo, counter-screen for streptokinase expression inhibitor project, dose response (AID 1915).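 Further: potency for reduction of bacterial viability or growth.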 Format: functional, organism-based.
The target of the next experiment is Melanocortin receptor 4 (Homo sapiens, UniProt P32245). In kind it is functional, cell-based.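 Further: Cell-based assay with luminescence read-out, confirmatory dose-response testing for agonist activity of biased ligands at MC4R; human U2OS cells with tagged receptor and beta-arrestin; potency of agonists that increase receptor coupling to beta-arrestin.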
For experiment [12], the target named is T7, Short transient receptor potential channel 4 (Mus musculus, UniProt Q9QUQ5).
T7 sequence (Q9QUQ5 whole entry): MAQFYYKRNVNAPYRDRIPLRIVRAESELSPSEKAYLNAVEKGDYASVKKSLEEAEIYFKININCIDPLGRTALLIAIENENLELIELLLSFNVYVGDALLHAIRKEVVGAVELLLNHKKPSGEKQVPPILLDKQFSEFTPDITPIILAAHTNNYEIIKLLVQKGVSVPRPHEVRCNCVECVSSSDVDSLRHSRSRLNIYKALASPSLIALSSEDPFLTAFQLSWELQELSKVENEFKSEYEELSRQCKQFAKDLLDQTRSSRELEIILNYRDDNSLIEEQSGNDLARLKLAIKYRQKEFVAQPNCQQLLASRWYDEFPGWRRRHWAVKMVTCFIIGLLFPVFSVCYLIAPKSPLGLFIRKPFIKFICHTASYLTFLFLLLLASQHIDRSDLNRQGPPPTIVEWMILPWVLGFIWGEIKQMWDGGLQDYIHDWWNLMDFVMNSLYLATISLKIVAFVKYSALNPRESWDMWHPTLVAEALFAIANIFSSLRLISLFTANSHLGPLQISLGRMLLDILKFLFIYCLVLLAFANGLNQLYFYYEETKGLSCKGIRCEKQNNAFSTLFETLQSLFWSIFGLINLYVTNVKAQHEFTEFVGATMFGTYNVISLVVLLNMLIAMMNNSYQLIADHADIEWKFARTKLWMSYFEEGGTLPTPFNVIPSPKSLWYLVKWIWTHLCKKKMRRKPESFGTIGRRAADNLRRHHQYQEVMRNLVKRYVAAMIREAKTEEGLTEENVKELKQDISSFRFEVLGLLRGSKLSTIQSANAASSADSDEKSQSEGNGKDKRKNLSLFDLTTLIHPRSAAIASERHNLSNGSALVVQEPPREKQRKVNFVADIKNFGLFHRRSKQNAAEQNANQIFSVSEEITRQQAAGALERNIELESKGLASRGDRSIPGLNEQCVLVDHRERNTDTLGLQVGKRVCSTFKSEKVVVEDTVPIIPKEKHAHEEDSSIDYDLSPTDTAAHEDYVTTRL
Briefly: calcium entry via TRPC4 opening agents – cell-based, HEK293 TRPC4/mu-opioid, Fluo-4 calcium, dose response (AID 434937). In kind it is functional.

For experiment [13], the target named is T8, Sphingosine 1-phosphate receptor 4 (Homo sapiens, UniProt O95977).
T8 sequence (O95977 whole entry): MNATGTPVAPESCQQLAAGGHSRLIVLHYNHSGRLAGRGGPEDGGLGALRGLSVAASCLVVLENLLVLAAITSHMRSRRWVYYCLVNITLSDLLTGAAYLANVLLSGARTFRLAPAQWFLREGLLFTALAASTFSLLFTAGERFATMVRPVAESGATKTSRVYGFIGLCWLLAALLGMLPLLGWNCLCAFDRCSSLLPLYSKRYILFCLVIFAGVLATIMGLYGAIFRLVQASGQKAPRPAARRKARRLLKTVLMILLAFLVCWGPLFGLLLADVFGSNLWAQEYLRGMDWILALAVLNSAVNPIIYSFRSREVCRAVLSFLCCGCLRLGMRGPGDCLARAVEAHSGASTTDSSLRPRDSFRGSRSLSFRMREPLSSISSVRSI
Briefly: Late-stage fluorescence dose response cell-based assay to identify agonists of the Sphingosine 1-Phosphate Receptor 4 (S1P4): purchased compounds EC50. [Related pubchem assays (depositor defined):AID1509, AID1523, AID1563, AID1686, AID1701, AID1801]. Format: functional.

The target of a further experiment is T9, Coagulation factor XII (Homo sapiens, UniProt P00748).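 Further: activated factor XIIa alpha cleaving a fluorogenic AMC peptide substrate; inhibitor potency from loss of enzyme activity.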
T9 sequence (P00748 whole entry): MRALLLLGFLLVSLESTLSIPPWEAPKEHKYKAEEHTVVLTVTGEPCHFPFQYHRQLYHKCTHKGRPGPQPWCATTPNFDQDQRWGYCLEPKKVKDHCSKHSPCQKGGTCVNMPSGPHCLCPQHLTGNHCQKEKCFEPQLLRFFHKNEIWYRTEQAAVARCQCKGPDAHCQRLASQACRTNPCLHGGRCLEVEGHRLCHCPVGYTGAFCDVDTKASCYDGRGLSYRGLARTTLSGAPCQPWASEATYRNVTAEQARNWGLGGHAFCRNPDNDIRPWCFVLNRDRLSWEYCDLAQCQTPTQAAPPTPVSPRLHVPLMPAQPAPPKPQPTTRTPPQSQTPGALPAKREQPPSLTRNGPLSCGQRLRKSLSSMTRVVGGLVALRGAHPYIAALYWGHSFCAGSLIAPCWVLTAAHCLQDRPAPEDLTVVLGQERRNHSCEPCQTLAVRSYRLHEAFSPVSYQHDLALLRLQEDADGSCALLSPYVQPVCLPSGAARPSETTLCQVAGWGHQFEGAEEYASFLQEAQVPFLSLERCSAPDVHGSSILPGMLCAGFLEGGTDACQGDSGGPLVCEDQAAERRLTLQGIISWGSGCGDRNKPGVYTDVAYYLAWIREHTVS
Format: functional.

For another experiment, the target named is Cytochrome P450 2D6 (Homo sapiens, UniProt P10635).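 Further: CYP2D6 member of a cytochrome P450 panel assay.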

Calls of active or inactive are those of the source. Bounds are passed on as bounds.

For orientation: IC50 means the concentration at which inhibition is half-maximal. The EC50 is the concentration giving half of the maximal effect. The AC50 is the concentration giving half of the maximal activity seen.

T3 sequence (P98170 whole entry): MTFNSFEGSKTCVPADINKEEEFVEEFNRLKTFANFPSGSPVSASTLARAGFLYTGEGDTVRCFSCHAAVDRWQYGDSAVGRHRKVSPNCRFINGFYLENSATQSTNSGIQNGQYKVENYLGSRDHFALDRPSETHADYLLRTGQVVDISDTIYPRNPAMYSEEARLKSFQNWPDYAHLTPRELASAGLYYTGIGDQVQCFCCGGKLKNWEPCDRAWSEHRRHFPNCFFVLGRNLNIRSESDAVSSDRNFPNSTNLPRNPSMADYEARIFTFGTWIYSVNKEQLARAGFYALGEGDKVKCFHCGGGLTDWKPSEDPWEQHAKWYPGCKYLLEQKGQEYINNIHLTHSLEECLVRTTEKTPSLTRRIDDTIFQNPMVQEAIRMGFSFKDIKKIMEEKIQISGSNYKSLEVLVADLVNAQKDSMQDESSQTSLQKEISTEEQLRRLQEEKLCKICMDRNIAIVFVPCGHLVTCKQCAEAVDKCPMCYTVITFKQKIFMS
Chain of Neurotensin receptor type 1 (P30989 whole entry): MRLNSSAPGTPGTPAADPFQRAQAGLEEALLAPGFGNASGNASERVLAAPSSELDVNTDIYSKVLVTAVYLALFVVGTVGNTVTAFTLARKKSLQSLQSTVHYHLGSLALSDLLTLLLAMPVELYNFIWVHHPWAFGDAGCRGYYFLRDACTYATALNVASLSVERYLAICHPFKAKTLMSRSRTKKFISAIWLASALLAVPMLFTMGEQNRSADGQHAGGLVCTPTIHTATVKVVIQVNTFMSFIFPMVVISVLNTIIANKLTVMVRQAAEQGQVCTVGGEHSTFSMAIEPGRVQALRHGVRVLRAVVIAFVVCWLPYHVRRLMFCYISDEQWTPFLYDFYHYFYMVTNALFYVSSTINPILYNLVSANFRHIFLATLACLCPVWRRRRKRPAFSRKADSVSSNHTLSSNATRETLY
Chain of Melanocortin receptor 4 (P32245 whole entry): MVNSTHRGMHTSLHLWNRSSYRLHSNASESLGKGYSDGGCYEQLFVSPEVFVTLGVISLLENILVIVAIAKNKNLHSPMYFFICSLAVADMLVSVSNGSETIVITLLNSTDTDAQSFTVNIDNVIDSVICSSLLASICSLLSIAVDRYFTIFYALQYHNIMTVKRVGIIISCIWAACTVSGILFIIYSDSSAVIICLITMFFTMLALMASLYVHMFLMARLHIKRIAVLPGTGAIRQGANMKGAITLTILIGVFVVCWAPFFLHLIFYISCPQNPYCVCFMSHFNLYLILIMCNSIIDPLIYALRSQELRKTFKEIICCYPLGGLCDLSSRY
Chain of Cytochrome P450 2D6 (P10635 whole entry): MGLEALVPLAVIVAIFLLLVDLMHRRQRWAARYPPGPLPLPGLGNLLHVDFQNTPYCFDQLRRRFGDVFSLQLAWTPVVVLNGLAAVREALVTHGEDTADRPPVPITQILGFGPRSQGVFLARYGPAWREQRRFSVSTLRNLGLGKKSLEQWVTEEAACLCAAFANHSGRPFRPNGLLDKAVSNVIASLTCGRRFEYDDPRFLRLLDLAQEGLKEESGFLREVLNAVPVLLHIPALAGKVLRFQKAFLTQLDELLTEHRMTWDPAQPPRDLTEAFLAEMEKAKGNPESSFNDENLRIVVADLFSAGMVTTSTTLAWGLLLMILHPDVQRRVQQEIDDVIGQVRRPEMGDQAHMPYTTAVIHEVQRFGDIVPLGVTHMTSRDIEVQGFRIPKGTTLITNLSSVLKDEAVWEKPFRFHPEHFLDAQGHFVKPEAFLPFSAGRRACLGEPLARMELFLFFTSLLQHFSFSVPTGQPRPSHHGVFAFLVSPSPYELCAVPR

For `O=C(CCN1C(=O)C2CC=C(Cl)CC2C1=O)NCc1ccco1` (stereo unspecified), the IC50 in experiment [1], in experiment [2] and in experiment [3] was > 79.4 µM (inactive) each time.

Consider `CC/N=C1\Cn2c(nc3scc(-c4ccccc4)c3c2=O)CN1CC`, for which the IC50 in [4] was > 100 µM (inactive); in [5], > 100 µM (not active).

For the molecule `COc1ccc(OC)c(/C=N/NC(=O)c2ccc(Cn3cc([N+](=O)[O-])cn3)o2)c1`, the IC50 in experiment [4] was > 100 µM (inactive); in experiment [5], > 100 µM (not active).

With `CCOc1ccccc1NC(=O)CN1CCC(C(=O)c2ccc(F)cc2)CC1`, the IC50 is 13.8 µM (active) in [6], > 20 µM (inactive) in experiment [7] and > 20 µM (inactive) at Bcl-2-related protein A1.

As to `O=C1c2cccc3cccc(c23)C(=O)N1CC1CCN(CC(O)COc2ccc3ccccc3c2)CC1` (stereo unspecified), the EC50 on Streptokinase A is 17.9 µM (inconclusive); in experiment [8] it was > 60 µM (not active); in experiment [9], 6.34 µM (active); in experiment [10] it was 1.65 µM (active); in experiment [11], 18.5 µM (active); in the experiment with Streptococcus, 18.6 µM (active). The concentration giving a half-maximal response (EC50) at Melanocortin receptor 4 is 6.31 µM (active). Moreover, the IC50 in experiment [6] is 15 µM (active); in [7] it was 7.69 µM (active); on Bcl-2-related protein A1, > 20 µM (inactive).

Take `CCOC(=O)c1ccc(NC(=O)NCCc2c[nH]cn2)cc1`: the EC50 in [12] was 0.133 µM (active).

As to `Cc1nn(CC(C)C)c(Cl)c1C(=O)OC(C)C(=O)Nc1ccccc1` (stereo unspecified), the EC50 in experiment [13] was > 50 µM (inactive).

Take `O=S(=O)(N1CCCCC1)N1CCN(c2ccccc2F)CC1`: on Coagulation factor XII, the IC50 was > 50 µM (inactive).

As to `O=C(c1sc2ccccc2c1Cl)N(Cc1ccccc1)C1CCS(=O)(=O)C1` (stereo unspecified), the EC50 in experiment [12] is 3.35 µM (active). The concentration at half-maximal activity (AC50) at Cytochrome P450 2D6 was 14.1 µM (inconclusive).

On to `CC(=O)N1CCc2c(sc(NC(=O)C3CC3)c2-c2nc3ccccc3s2)C1`, for which the IC50 on Coagulation factor XII was 25.7 µM (active).

For the origin of these results see ChEMBL document CHEMBL1201862, “PubChem BioAssay data set” (2004).
